pEC50: −log10 of the molar value. Where “and” joins values, the source holds several entries; their conditions need not be identical. Identical values can stand only once.
How the values were obtained:
β3 human transgenic mice = assay: Thermogenesis (Oxymax indirect calorimeter) in β3 transgenic (Tg) mice; assay type: in vivo, mice (FVB); settings: percent increase in thermogenesis over baseline; for change in vivo at 10 mg/kg: Mus musculus, ip, IP 10 mg/kg
Text: Evaluation in β3 Knockout(KO) and β3 Transgenic(Tg) Mice: The ability of compounds of this invention to treat or inhibit disorders related to insulin resistance or hyperglycemia was also confirmed with representative compounds of this invention in an in vivo standard pharmacological test procedure which compared thermogenesis in transgenic mice (Tg mice) and β3-knockout mice (KO mice).
β3-Adrenergic receptor knockout mice and β3 human transgenic mice are created on an inbred FVB background (Susulic, V. S., et.al., J. Biol. Chem., 1995, 270 (49), 29483-29492). Female FVB β3 transgenic and β3 knockout mice were used to determine in vivo activity and selectivity of β3 agonists. […] These compounds were also selective in being 100-fold less responsive and partial agonists when tested in β1 and β2 transfected CHO cells. Compounds were tested for increased thermogenesis using the Oxymax indirect calorimeter (Columbus Instruments, Columbus, Ohio). Fed animals were placed in chambers for 3 hours to obtain baseline O2 and CO2 values. Eight fed mice were weighed in pairs and placed in 4 chambers, two per chamber. The relative gas content of each chamber was sampled and recorded at 10 to 12 minute intervals. For each sample, energy expenditure values were calculated by the Oxymax and expressed as kcal/hr. After 3 hours of baseline measurement, the mice were removed, treated and replaced in the chambers. The β3 agonists were injected at doses between 0.1 and 20 mg/kg i.p. and between 1.0 and 30 mg/kg for oral administration. Compounds in 10 mM or 10 mg/ml DMSO solutions were suspended in 0.5% methylcellulose: 0.1% tween-80 and injected i.p. or administered by oral gavage. Some compounds were suspended in 5.0% tween-80 for oral administration. Post-treatment kcal/hr values were taken between 40 minutes and 2.5 hours later. The 6 to 10 sample sections of the pre-treatment and post-treatment periods, which appear to best represent stable resting thermogenesis, were selected. Each of these sample values was corrected for body weight and used such that each pair of mice serves as its own baseline for both T test and percent increase in thermogenesis calculations. An ANOVA and a one sided T test (H1: Post>Pre) are performed using the SAS software modified to down weight extreme values. In a separate set of calculations, values that appear to be too high to represent resting thermogenesis are discarded (activity monitor sampling associated spikes in thermogenesis with ambulatory activity). The mean baseline value for each chamber is subtracted from mean post-treatment value for that chamber. This baseline-subtracted value is divided by the mean baseline value and multiplied by 100 to obtain a percent increase in thermogenesis for each chamber. The combined mean percent increase, standard deviation, and standard error of the mean for each chamber is calculated. Compounds were considered active if they were able to produce a statistically significant 15% increase in thermogenesis in β3 transgenic mice and no significant increase in β3 knockout mice.

human β3 receptors = biological target: T1, human β3 receptors (Homo sapiens, UniProt P13945); assay: cAMP response (SPA) in CHO cells expressing cloned human β3 adrenergic receptor; assay type: cell-based; settings: for pEC50: CHO cells expressing human β3 receptor, cAMP, 30 min incubation, 10^−9 M to 10^−5 M; for IA(β3): maximal response compared to the maximal response of isoproterenol at 10^−5 M
T1 construct: Full length β3 AR clones (402 amino acids) containing the last 6 amino acids of hβ3—AR; expressed in transfected cells; host or cells: CHO cells
Method in brief: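 CHO cells transfected with cloned human β3-AR were incubated with compound at 37° C for 30 min, stopped with 0.2N HCl and neutralized. cAMP was measured by SPA. Activity is expressed as per cent of the maximal isoproterenol (10^−5 M) response.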

T1 sequence (P13945 whole entry): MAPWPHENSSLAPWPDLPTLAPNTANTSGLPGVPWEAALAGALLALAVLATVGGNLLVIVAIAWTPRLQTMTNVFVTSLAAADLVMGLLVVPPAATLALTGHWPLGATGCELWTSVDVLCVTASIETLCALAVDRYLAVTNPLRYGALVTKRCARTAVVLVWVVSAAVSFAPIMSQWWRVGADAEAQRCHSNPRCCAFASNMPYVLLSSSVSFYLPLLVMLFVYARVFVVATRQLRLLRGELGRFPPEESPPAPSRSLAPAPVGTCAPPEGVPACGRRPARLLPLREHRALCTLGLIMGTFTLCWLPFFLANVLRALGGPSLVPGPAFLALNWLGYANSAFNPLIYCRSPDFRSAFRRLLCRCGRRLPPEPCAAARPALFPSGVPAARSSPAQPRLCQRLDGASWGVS

SMILES	pEC50 (human β3 receptors)	IA(β3) (human β3 receptors)	other results
O[C@@H](CNCC1CCN(CCC(F)(F)F)CC1)COc1cccc2[nH]c3ccccc3c12 [Example 10, (2S)-1-(9H-Carbazol-4-yloxy)-3-{[1-(3,3,3-trifluoro-propyl)-piperidin-4-ylmethyl]-amino}-propan-2-ol]	–	–	change in vivo at 10 mg/kg (β3 human transgenic mice; mouse type hetero): -15%
CCCCCCNC(=O)Nc1ccc(S(=O)(=O)N2CCC(CNC[C@H](O)COc3cccc4[nH]c5ccccc5c34)CC2)cc1 [Example 58, 1-[4-(4-{[(2S)-3-(9H-Carbazol-4-yloxy)-2-hydroxy-propylamino]-methyl}-piperidine-1-sulfonyl)-phenyl]-3-hexyl-urea]	–	–	change in vivo at 10 mg/kg (β3 human transgenic mice; mouse type hetero): -3%
CCCCCCNC(=O)Nc1ccc(S(=O)(=O)N2CCC(CNC[C@H](O)COc3ccc(O)cc3)CC2)cc1 [Example 59, 1-Hexyl-3-[4-(4-{[(2S)-2-hydroa-3-(4-hydroxy-phenoxy)-propylamino]-methyl}-piperidine-1-sulfonyl)-phenyl]-urea]	–	–	change in vivo at 10 mg/kg (β3 human transgenic mice; mouse type homo): 5%
O=C(Nc1ccccc1)Nc1ccc(S(=O)(=O)N2CCC(CNC[C@H](O)COc3ccc(O)cc3)CC2)cc1 [Example 63, 1-[4-(4-{[(2S)-2-Hydroxy-3-(4-hydroxy-phenoxy)-propylamino]-methyl}-piperidine-1-sulfonyl)-phenyl]-3-phenyl-urea]	–	–	change in vivo at 10 mg/kg (β3 human transgenic mice; mouse type homo): 3%
CCCCCCCCNC(=O)Nc1ccc(S(=O)(=O)N2CCC(CNC[C@H](O)COc3ccc(O)cc3)CC2)cc1 [Example 69, 1-[4-(4-{[(2S)-2-Hydroxy-3-(4-hydroxy-phenoxy)-propylamino]-methyl}-piperidine-1-sulfonyl)-phenyl]-3-octyl-urea]	–	–	change in vivo at 10 mg/kg (β3 human transgenic mice; mouse type hetero): 24%; change in vivo at 10 mg/kg (β3 human transgenic mice; mouse type homo): 24%; Thermogenesis, Transgenic Mice, Gavage % (β3 human transgenic mice; mouse type hetero, gavage 30 mg/kg): 14%
CCCCCCCCNC(=O)Nc1ccc(S(=O)(=O)N2CCC(CNC[C@H](O)COc3ccc(O)c4c3CCC(=O)N4)CC2)cc1 [Example 74, 1-[4-(4-{[(2S)-2-Hydroxy-3-(8-hydroxy-2-oxo-1,2,3,4-tetrahydro-quinolin-5-yloxy)-propylamino]-methyl}-piperidine-1-sulfonyl)-phenyl]-3-octyl-urea]	–	–	change in vivo at 10 mg/kg (β3 human transgenic mice; mouse type homo): 18%
O=C(NCCCc1cccs1)Nc1ccc(S(=O)(=O)N2CCC(CNC[C@H](O)COc3ccc(O)cc3)CC2)cc1 [Example 75, 1-[4-(4-1{[(2S)-2-Hydroxy-3-(4-hydroxy-phenoxy)-propylamino]-methyl}-piperidine-1-sulfonyl)-phenyl]-3-(3-thiophen-2-yl-propyl)-urea]	–	–	change in vivo at 10 mg/kg (β3 human transgenic mice; mouse type homo): 5%
CS(=O)(=O)Nc1cc([C@@H](O)CNCC2CCN(S(=O)(=O)c3ccc(NC(=O)N4CCC[C@H]4C(=O)O)cc3)CC2)ccc1O [Example 112, (2S)-1-({4-[(4-{[((2R)-2-Hydroxy-2-{4-hydroxy-3-[(methylsulfonyl)amino]phenyl}-ethyl)amino]methyl}piperidin-1-yl)sulfonyl]anilino}carbonyl)pyrrolidine-2-carboxylic Acid]	6.88	0.93	–

Second part, led by results:

pEC50 (human β3 receptors)	IA(β3) (human β3 receptors)	SMILES	other results
8.00	1	CC(C)C[C@H](NC(=O)c1ccc(N2CCC(CNC[C@H](O)c3ccc(O)c(NS(C)(=O)=O)c3)CC2)cc1)C(=O)O [Example 114, (2S)-2-{[4-(4-{[((2R)-2-Hydroxy-2-{4-hydroxy-3-[(methylsulfonyl)amino]phenyl}-ethyl)amino]methyl}piperidin-1-yl)benzoyl]amino}-4-methylpentanoic Acid]	–
7.26	1	CC(C)c1ccc(S(=O)(=O)N2CCC(CNC[C@H](O)c3ccc(O)c(NS(C)(=O)=O)c3)CC2)cc1 [Example 124, N-(2-hydroxy-5-{(1R)-1-hydroxy-2-[({1-[(4-isopropylphenyl)-sulfonyl]piperidin-4-yl}methyl)amino]ethyl}phenyl)-methanesulfonamide]	–
6.09	1.34	Cc1c(C)c(C)c(S(=O)(=O)N2CCC(CNC[C@H](O)c3ccc(O)c(NS(C)(=O)=O)c3)CC2)c(C)c1C [Example 143, N-(2-hydroxy-5-{(1R)-1-hydroxy-2-[({1-[(2,3,4,5,6-pentamethylphenyl)suIfonyl]piperidin-4-yl}methyl)amino]ethyl}phenyl)methanesulfonamide]	–
7.38	0.76	CS(=O)(=O)Nc1cc([C@@H](O)CNCC2CCN(S(=O)(=O)c3cccc4ccccc34)CC2)ccc1O [Example 153, N-{2-hydroxy-5-[(1R)-1-hydroxy-2-({[1-(1-naphthylsulfonyl)piperidin-4-yl]methyl}amino)ethyl)phenyl}methanesulfonamide]	–
6.17	1	O=c1[nH]c2cccc(OC[C@@H](O)CNCC3CCN(S(=O)(=O)c4ccc5ccccc5c4)CC3)c2[nH]1 [Example 157, 4-{[(2S)-2-hydroxy-3-({[1-(2-naphthylsulfonyl)piperidin-4-yl]methyl}amino)propyl]oxy}-1,3-dihydro-2H-benzimidazol-2-one]	–
6.46	0.85	CC(C)(C)c1ccc(S(=O)(=O)N2CCC(CNC[C@H](O)COc3ccc(O)cc3)CC2)cc1 [Example 160, 4-[((2S)-3-{[(1-{[4-(tert-butyl)phenyl]sulfonyl}piperidin-4-yl)methyl]amino}-2-hydroxypropyl)oxy]phenol]	–
7.96 and 7.46	0.64 and 0.94	CC(C)(C)c1ccc(S(=O)(=O)N2CCC(CNC[C@H](O)COc3cccc4[nH]c(=O)[nH]c34)CC2)cc1 [Example 162, 4-[((2S)-3-{[(1-{[4-(tert-butyl)phenyl]sulfonyl}piperidin-4-yl)methyl]-amino}-2-hydroxypropyl)oxy]-1,3-dihydro-2H-benzimidazol-2-one]	–
7.40	0.85	CC(C)(C)c1ccc(S(=O)(=O)N2CCC(CNC[C@H](O)c3ccc(O)c(NS(C)(=O)=O)c3)CC2)cc1 [Example 163, N-[5-((1R)-2-{[(1-{[4-(tert-butyl)phenyl]sulfonyl}piperidin-4-yl)-methyl]amino}-1-hydroxyethyl)-2-hydroxyphenyl]-methanesulfonamide]	–
6.03	0.72	CCc1cc(Br)ccc1S(=O)(=O)N1CCC(CNC[C@H](O)c2ccc(O)c(NS(C)(=O)=O)c2)CC1 [Example 168, N-(5-((1R)-2-[({1-[(4-bromo-2-ethylphenyl)sulfonyl]piperidin-4-yl}-methyl)amino]-1-hydroxyethyl}-2-hydroxyphenyl)-methanesulfonamide]	–
6.41 and 6.42	1.34 and 1.15	CS(=O)(=O)Nc1cc([C@@H](O)CNCC2CCN(S(=O)(=O)c3c(Cl)sc(Cl)c3Br)CC2)ccc1O [Example 173, N-(5-{(1R)-2-[({1-[(4-bromo-2,5-dichlorothien-3-yl)sulfonyl]-piperidin-4-yl}methyl)amino]-1-hydroxyethyl}-2-hydroxyphenyl)-methanesulfonamide]	–
5.85	0.72	CS(=O)(=O)Nc1cc([C@@H](O)CNCC2CCN(S(=O)(=O)c3ccc(CNC(=O)c4ccccc4)s3)CC2)ccc1O [Example 183, N-({5-[(4-{[((2R)-2-hydroxy-2-{4-hydroxy-3-[(methylsulfonyl)-amino]-phenyl}ethyl)amino]methyl}piperidin-1-yl)sulfonyl]thien-2-yl}methyl)benzamide]	–

Source: patent publication US6506901B2, “Substituted 2-(S)-hydroxy-3-(piperidin-4-yl-methylamino)-propyl ethers and substituted 2-aryl-2-(R)-hydroxy-1-(piperidin-4-yl-methyl)-ethylamine β-3 adrenergic receptor agonists” (Wyeth, priority 2000, dated 2003)
